Data as given in ChEMBL document CHEMBL5055690, “Introducing the Tellurophene-Appended BODIPY: PDT Agent with Mass Cytometry Tracking Capabilities” (ACS Med Chem Lett, 2021).
pIC50: −log10 of the molar value. The source made the active and inactive calls. The calls are words filed in the database; no cut-off is given here.

Columns and labels:
HeLa [1] = assay: Dark toxicity in human HeLa cells assessed as reduction in cell viability measured after 3 hrs by MTT assay; format: cell-based
HeLa [2] = assay: Induction of ROS generation in human HeLa cells at 25 nM preincubated for 3 hrs followed by irradiation with 23.6 milliwolt/cm2 of 525 nanometer laser light for 5 mins and measured by DCFDA staining based flourescence method; format: functional, cell-based; conditions: time 185.0 min
HeLa [3] = assay: Induction of ROS generation in human HeLa cells at 25 nM measured after 3 hrs by DCFDA staining based flourescence assay; format: cell-based; conditions: 0.025 µM
HeLa [4] = assay: Induction of apoptosis in human HeLa cells at 1.25 nM preincubated for 3 hrs followed by irradiation with 23.6 milliwolt/cm2 of 525 nanometer laser light for 5 mins and measured after 4 hrs by Annexin V/PI staining based flowcytometry assay; format: functional, cell-based; conditions: time 185.0 min
HeLa [5] = assay: Induction of apoptosis in human HeLa spheroids assessed as cell death at 100 nM preincubated for 3 hrs followed by irradiation with 23.6 milliwolt/cm2 of 525 nanometer laser light for 5 mins and measured after overnight by plate reader assay; format: functional, cell-based; conditions: time 185.0 min
[6] = Drug uptake in human HeLa cells assessed as drug accumulation at 25 to 1000 nM incubated for 3 hrs under dark condition by […] mass cytometry; format: ADME, cell-based; conditions: 1 µM, dose 25-1000 nM
[7] = Induction of singlet oxygen generation in DMF solution assessed as singlet oxygen quantum yield irradiated with 490 nanometer LED light by DPBF-based assay; format: functional

Structure (SMILES): F[B-]1(F)n2cccc2C(c2ccc(-c3ccc[te]3)cc2)=C2C=CC=[N+]21
- pIC50 (HeLa [1]): 5.87
- Activity (HeLa [2]): Active
- Activity (HeLa [3]): Non-Toxic
- Activity (HeLa [4]): Active
- Activity (HeLa [5]): Active
- Drug uptake [6]: Active
- Activity [7]: 0.26
